Data as given in patent publication US11109593B2, “Isoxazolin-5-one derivative and herbicide containing same as active ingredient” (HOKKO CHEMICAL INDUSTRY CO., LTD., priority 2017, dated 2021).

Test system: Echinochloa crus-galli
Assay: Test Example 1: herbicidal effect test by treatment of rice paddy soil (immediately after seeding)
Assay type: in vivo
Conditions: 120 g/10a active ingredient, dry weight vs untreated area, 14 days after treatment
Method in brief: (§1)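 Paddy soil in pots with compound fertilizer, puddled; 30 seeds per species sown at 0–1 cm, flooded ~3 cm, greenhouse. Water-diluted emulsions dropped onto water immediately after seeding at 120 g active ingredient per 10 ares, duplicate. Herbicidal rate (%) from plant dry weight versus untreated, 14 days after treatment.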

Compound | Herbicidal rate (%) Echinochloa crus-galli [%]
Cc1ccc(Cn2oc(=O)c(Cc3ccccc3NS(=O)(=O)C(F)(F)F)c2C)cc1 [Compound 1-191] | 90
Cc1c(Cc2ccccc2NS(=O)(=O)C(F)(F)F)c(=O)on1CCCl [Compound 1-133] | 80
CSCCn1oc(=O)c(Cc2ccccc2NS(=O)(=O)C(F)(F)F)c1C [Compound 1-162] | 100

Test system: Scirpus juncoides
Assay: as above
Assay type: in vivo
Conditions: 120 g/10a active ingredient, dry weight vs untreated area, 14 days after treatment
Method in brief: as §1

Compound | Herbicidal rate (%) Scirpus juncoides [%]
Cc1ccc(Cn2oc(=O)c(Cc3ccccc3NS(=O)(=O)C(F)(F)F)c2C)cc1 [Compound 1-191] | 90
Cc1c(Cc2ccccc2NS(=O)(=O)C(F)(F)F)c(=O)on1CCCl [Compound 1-133] | 100
CSCCn1oc(=O)c(Cc2ccccc2NS(=O)(=O)C(F)(F)F)c1C [Compound 1-162] | 100

Test system: broad leaf weeds (Lindernia pyxidaria and Monochoria vaginalis)
Assay: as above
Assay type: in vivo
Conditions: Lindernia pyxidaria, 120 g/10a active ingredient, dry weight vs untreated area, 14 days after treatment
Method in brief: as §1

Compound | Herbicidal rate (%) Lindernia pyxidaria [%]
Cc1ccc(Cn2oc(=O)c(Cc3ccccc3NS(=O)(=O)C(F)(F)F)c2C)cc1 [Compound 1-191] | 100
Cc1c(Cc2ccccc2NS(=O)(=O)C(F)(F)F)c(=O)on1CCCl [Compound 1-133] | 100
CSCCn1oc(=O)c(Cc2ccccc2NS(=O)(=O)C(F)(F)F)c1C [Compound 1-162] | 100

Same assay, conditions: Monochoria vaginalis, 120 g/10a active ingredient, dry weight vs untreated area, 14 days after treatment

Compound | Herbicidal rate (%) Monochoria vaginalis [%]
Cc1ccc(Cn2oc(=O)c(Cc3ccccc3NS(=O)(=O)C(F)(F)F)c2C)cc1 [Compound 1-191] | 90
Cc1c(Cc2ccccc2NS(=O)(=O)C(F)(F)F)c(=O)on1CCCl [Compound 1-133] | 100
CSCCn1oc(=O)c(Cc2ccccc2NS(=O)(=O)C(F)(F)F)c1C [Compound 1-162] | 100

Test system: Echinochloa crus-galli
Assay: Test Example 2: herbicidal effect test by treatment during growing period in paddy rice cultivation (seven days after seeding)
Assay type: in vivo
Conditions: 120 g/10a active ingredient, assessed 14 days after treatment, dry weight vs untreated area
Method in brief: (§2)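 Paddy soil in Wagner pots with compound fertilizer, puddled; 30 seeds per species sown at 0–1 cm, flooded ~3 cm, greenhouse. Seven days after seeding, water-diluted emulsions were dropped into the water at 120 g active ingredient per 10 ares. Duplicate pots; herbicidal rate from dry weight versus untreated, 14 days after treatment.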

Compound | Herbicidal rate (%) Echinochloa crus-galli [%]
Cc1ccc(Cn2oc(=O)c(Cc3ccccc3NS(=O)(=O)C(F)(F)F)c2C)cc1 [Compound 1-191] | 90
Cc1c(Cc2ccccc2NS(=O)(=O)C(F)(F)F)c(=O)on1CCCl [Compound 1-133] | 60
CSCCn1oc(=O)c(Cc2ccccc2NS(=O)(=O)C(F)(F)F)c1C [Compound 1-162] | 90

Test system: Scirpus juncoides
Assay: as above
Assay type: in vivo
Conditions: 120 g/10a active ingredient, assessed 14 days after treatment, dry weight vs untreated area
Method in brief: as §2

Compound | Herbicidal rate (%) Scirpus juncoides [%]
Cc1ccc(Cn2oc(=O)c(Cc3ccccc3NS(=O)(=O)C(F)(F)F)c2C)cc1 [Compound 1-191] | 90
Cc1c(Cc2ccccc2NS(=O)(=O)C(F)(F)F)c(=O)on1CCCl [Compound 1-133] | 80
CSCCn1oc(=O)c(Cc2ccccc2NS(=O)(=O)C(F)(F)F)c1C [Compound 1-162] | 80

Test system: broad leaf weeds (Lindernia pyxidaria and Monochoria vaginalis)
Assay: as above
Assay type: in vivo
Conditions: Lindernia pyxidaria, 120 g/10a active ingredient, assessed 14 days after treatment, dry weight vs untreated area
Method in brief: as §2

Compound | Herbicidal rate (%) Lindernia pyxidaria [%]
Cc1ccc(Cn2oc(=O)c(Cc3ccccc3NS(=O)(=O)C(F)(F)F)c2C)cc1 [Compound 1-191] | 80
Cc1c(Cc2ccccc2NS(=O)(=O)C(F)(F)F)c(=O)on1CCCl [Compound 1-133] | 60
CSCCn1oc(=O)c(Cc2ccccc2NS(=O)(=O)C(F)(F)F)c1C [Compound 1-162] | 70

Same assay, conditions: Monochoria vaginalis, 120 g/10a active ingredient, assessed 14 days after treatment, dry weight vs untreated area

Compound | Herbicidal rate (%) Monochoria vaginalis [%]
Cc1ccc(Cn2oc(=O)c(Cc3ccccc3NS(=O)(=O)C(F)(F)F)c2C)cc1 [Compound 1-191] | 80
Cc1c(Cc2ccccc2NS(=O)(=O)C(F)(F)F)c(=O)on1CCCl [Compound 1-133] | 80
CSCCn1oc(=O)c(Cc2ccccc2NS(=O)(=O)C(F)(F)F)c1C [Compound 1-162] | 80

Test system: Amaranthus viridis
Assay: Test Example 4: herbicidal effect test by treatment of leave and stem in dry field farming (seven days after seeding)
Assay type: in vivo
Conditions: 120 g/10a active ingredient; emulsion sprayed seven days after seeding; evaluated 14 days after treatment
Protocol: (§3) This test was conducted in a double system per one agent solution concentration area, and the herbicidal rates (%) were determined by the following equation (Math. 1) on 14 days after the treatment with the agents. Herbicidal Rate (%)={1-(Average Dry Weight (g) of Plant of Treated Area)/(Average Dry Weight (g) of Plant of Untreated Area)}×100 [Math. 1]
(§4) Herbicidal Effect Test by Treatment of Leave and Stem in Dry Field Farming
(§5) Pots with a size of 36 cm^2 were filled with a dry field farming soil (alluvium). The soil of the top layer of 1 cm and seeds of weeds, namely southern crabgrass, Echinochloa crus-galli, Chenopodium album and Amaranthus viridis, 20 seeds each, were evenly mixed, and the top layer was gently pressed. Emulsions prepared using the compounds in Table 6 below according to Formulation Example 5 were diluted with water seven days after seeding, and the water-diluted agent solutions were sprayed to the soil surfaces at a ratio of 100 liters per 10 ares. The converted amount of the applied active ingredient corresponded to 120 g per 10 ares. The herbicidal effects were evaluated by the same standard as that in Test Example 1 on 14 days after the treatment with the agents. […] The compound numbers in Table 6 are the same as those in Table 1 and Table 2 above.

Compound | herbicidal effect (herbicidal rate), Amaranthus viridis [%]
Cc1ccc(Cn2oc(=O)c(Cc3ccccc3NS(=O)(=O)C(F)(F)F)c2C)cc1 [Compound 1-191] | 80
Cc1c(Cc2ccccc2NS(=O)(=O)C(F)(F)F)c(=O)on1CCCl [Compound 1-133] | 0
CSCCn1oc(=O)c(Cc2ccccc2NS(=O)(=O)C(F)(F)F)c1C [Compound 1-162] | 50

Test system: Chenopodium album
Assay: as above
Assay type: in vivo
Conditions: 120 g/10a active ingredient; emulsion sprayed seven days after seeding; evaluated 14 days after treatment
Protocol: as §3, §4, §5

Compound | herbicidal effect (herbicidal rate), Chenopodium album [%]
Cc1ccc(Cn2oc(=O)c(Cc3ccccc3NS(=O)(=O)C(F)(F)F)c2C)cc1 [Compound 1-191] | 40
Cc1c(Cc2ccccc2NS(=O)(=O)C(F)(F)F)c(=O)on1CCCl [Compound 1-133] | 40
CSCCn1oc(=O)c(Cc2ccccc2NS(=O)(=O)C(F)(F)F)c1C [Compound 1-162] | 60

Test system: Echinochloa crus-galli
Assay: as above
Assay type: in vivo
Conditions: 120 g/10a active ingredient; emulsion sprayed seven days after seeding; evaluated 14 days after treatment
Protocol: as §3, §4, §5

Compound | herbicidal effect (herbicidal rate), Echinochloa crus-galli [%]
Cc1ccc(Cn2oc(=O)c(Cc3ccccc3NS(=O)(=O)C(F)(F)F)c2C)cc1 [Compound 1-191] | 90
Cc1c(Cc2ccccc2NS(=O)(=O)C(F)(F)F)c(=O)on1CCCl [Compound 1-133] | 90
CSCCn1oc(=O)c(Cc2ccccc2NS(=O)(=O)C(F)(F)F)c1C [Compound 1-162] | 90

Test system: southern crabgrass
Assay: as above
Assay type: in vivo
Conditions: 120 g/10a active ingredient; emulsion sprayed seven days after seeding; evaluated 14 days after treatment
Protocol: as §3, §4, §5

Compound | herbicidal effect (herbicidal rate), southern crabgrass [%]
Cc1ccc(Cn2oc(=O)c(Cc3ccccc3NS(=O)(=O)C(F)(F)F)c2C)cc1 [Compound 1-191] | 40
Cc1c(Cc2ccccc2NS(=O)(=O)C(F)(F)F)c(=O)on1CCCl [Compound 1-133] | 40
CSCCn1oc(=O)c(Cc2ccccc2NS(=O)(=O)C(F)(F)F)c1C [Compound 1-162] | 60
